According to publication PMC8277133, “Os(II)-Bridged Polyarginine Conjugates: The Additive Effects of Peptides in Promoting or Preventing Permeation in Cells and Multicellular Tumor Spheroids” (Inorganic Chemistry, 2021):
Where a SMILES comes first, the peptide text is derived from it. [ ]: non-standard residue; d: D form. The star is where a group is joined. X1 = O=C(c1ccc(-c2cc(-c3ccccn3)nc(-c3ccccn3)c2)cc1)*; Ahx = NCCCCCC(=O)O

Columns and labels:
HPAC spheroids [1] = experiment: 3D spheroid viability, Alamar Blue; type: cell-based, human; details: 100 μM, 24 and 48 h, relative to untreated controls, n=2
Protocol: The 3D spheroid viability was evaluated using Alamar Blue. Briefly, 2.5 × 10^3 cells were seeded in each well of a 96-well round-bottom plate pre-coated with poly-Hema. The cells were allowed to grow and form spheroids for 72 h. The spheroids were then treated with [Os-(R4)2]^10+ at 100 μM for 24 and 48 h. The Alamar Blue reagent at a concentration of 10% was added to each well and incubated for 5 h at 37 °C. Fluorescence was measured at 535/590 excitation/emission wavelengths on a plate reader (Biotek) using Gen4 software. Background fluorescence was measured by using a blank consisting of medium only. Percentage viability was calculated relative to untreated controls.

CHO cells [2] = experiment: DRAQ7 co-staining for damaged/dead cells, CHO; type: cell-based, Chinese hamster; details: 30 μM, 24 h
Protocol: (§1) Uptake studies were carried out for A549 and CHO cell lines. Cells were seeded at 1.5 × 10^5 cells in 35 mm glass-bottom culture dishes (Ibidi, Germany). Cells were allowed to grow for 24 h at 37 °C with 5% CO2. The growth medium was removed, and a specific concentration of [Os-(Rn)2]^x+ (n = 4 and 8; x = 10^+ and 18^+) was added and allowed to incubate for 24 and 48 h at 37 °C with 5% CO2 in the dark. The dye/media solution was removed, and cells were washed twice with supplemented phosphate-buffered saline (PBS, 1.1 mM MgCl2 and 0.9 mM CaCl2). Cells were directly imaged using a Leica TSP DMi8 confocal microscope (63× oil immersion objective lens unless stated otherwise) with a heated stage at 37 °C.
(§2) [Os-(Rn)2]^x+ (n = 4 and 8; x = 10^+ and 18^+) was excited using a 490 nm white light laser, and the emission range was set to be between 650 and 800 nm. DRAQ7, a nuclear staining dye, was added (3 μM) to distinguish intact live cells from permeabilized/dead cells. The 633 nm laser was used to excite DRAQ7, and emission was collected between 635 and 750 nm. For co-localization studies, MitoTracker Deep Red (100 nM) and LysoTracker Green (50 nM) were used to selectively stain mitochondria and lysosomes, respectively. MitoTracker Deep Red was excited at 644 nm and emission was collected between 655 and 720 nm, and LysoTracker Green was excited at 504 nm and emission was collected at 511 nm.

A549 cells [3] = experiment: Phototoxicity under continuous 490 nm irradiation with DRAQ7; type: cell-based; details: A549 cells pretreated 30 μM/24 h, DRAQ7, continuous 490 nm irradiation 0.84 μW/cm^2, 3 h
Protocol: DRAQ7 was added to live A549 cells treated with [Os-(R4)2]^10+ (30 μM/24 h). A group of cells were selected for continuous irradiation using 490 nm excitation (0.84 μW/cm^2). Emission was collected between 650 and 800 nm for [Os-(R4)2]^10+. The 633 nm laser was used to excite DRAQ7, and emission was collected between 635 and 750 nm. This was repeated for an untreated control sample exposed to continuous irradiation and stained with DRAQ7.

HPAC spheroids [4] = experiment: Confocal imaging of penetration into live HPAC multicellular tumor spheroids; type: cell-based, human; details: for Spheroid penetration / accumulation: 100 μM, 48 h, confocal microscopy, no permeant
Protocol: The human pancreatic cancer cell line (HPAC) was cultured in Gibco Roswell Park Memorial Institute medium supplemented with 5% FBS at 37 °C with 5% CO2. HPAC cells were seeded at 2.5 × 10^3 cells/well of 96-well round-bottom plates pre-coated with poly-Hema (poly-2-hydroxyethyl methacrylate, Sigma). Cells were allowed to be compact and form 3D spheroid structures after 72 h.
Spheroids were treated with [Os-(R4)2]^10+ at 30 μM for 24 h and 100 μM for 24 and 48 h. Control spheroids were treated with the parent complex [Os(tpybenzCOOH)2]^2+ and [Os-(R8)2]^18+ at 100 μM for 48 h. Non-treated spheroids were also prepared as a negative control. Spheroids were co-stained with DAPI at 10 μM for 90 min. Each spheroid was collected individually and embedded in collagen in eight-well chamber slides, incubated for 90 min, and observed under confocal microscopy.
For imaging, HPAC spheroids were plated in collagen-treated eight-well chamber slides. HPAC spheroids were directly imaged from the eight-well chamber using a Leica TSP DMi8 confocal microscope (10× dry and 40× oil immersion objective). Z-scanning was used to acquire images across the z-axis of the spheroid sample. On average, 45–50 images were acquired at approximately 5 μm apart. 3D Z-stack images were used for spheroid reconstructions and 2D projection images are also reported. The Os(II) parent complex and bioconjugates were excited using a 490 nm white light laser, and the emission range was set to be between 650 and 800 nm (a false red color was used for the Os(II) channel). DAPI was excited at 405 nm, and emission was collected between 423 and 580 nm.

A549 cells [5] = experiment: Confocal laser scanning microscopy uptake study in live A549 cells; type: cell-based; details: CLSM; for Cellular uptake / membrane permeation: live A549 cells, 24 h, 37 °C
Protocol: (§3) Two cell lines were studied: an adherent mammalian cell line, Chinese hamster ovarian (CHO–K1), and a lung carcinoma cancer cell line (A549). Dulbecco’s modified Eagle’s medium (DMEM)/Hams F-12 was used for CHO cells and DMEM for A549 cells. Both media were supplemented with 10% FBS and 1% penicillin–streptomycin. The cells were grown at 37 °C with 5% CO2 and sub-cultured at 90% confluency.
as §1, with “The growth medium was removed, and a specific concentration of [Os-(Rn)2]^x+ (n = 4 and 8; x = 10^+ and 18^+) was added and allowed to incubate for 24 and 48 h at 37 °C with 5% CO2 in the dark.” left out
as §2

CHO cells [6] = experiment: Confocal laser scanning microscopy uptake study in live CHO cells; type: cell-based, Chinese hamster; details: CLSM; for Cellular uptake / membrane permeation: live CHO cells, 24 h, 37 °C
Protocol: as §3
as §1, with “The growth medium was removed, and a specific concentration of [Os-(Rn)2]^x+ (n = 4 and 8; x = 10^+ and 18^+) was added and allowed to incubate for 24 and 48 h at 37 °C with 5% CO2 in the dark.” left out
as §2

A549 cells [7] = experiment: DRAQ7 co-staining for damaged/dead cells, A549; type: cell-based
Protocol: as §1, §2

cell membrane = details: parent complex without peptide; as reported previously; cited from earlier work
Protocol: Uptake of the Os(II) bis-octaarginine conjugate was studied in live A549 lung carcinoma and a non-cancerous CHO cell line. […] The conjugate remained as impermeable to the cell membrane as the parent Os(II) complex at 30 μM/24 h and 100 μM/24 h (Figure S12).

SMILES | Spheroid viability (HPAC spheroids [1]) | Cellular damage by DRAQ7 co-staining (CHO cells [2]) | Photo-induced toxicity (A549 cells [3]) | Staining at the center of the spheroid, at 72 ± 5 μm (HPAC spheroids [4]; 30 μM/24 h) | Spheroid penetration (HPAC spheroids [4]; 30 μM/24 h, 3D reconstruction depth coding) | Spheroid penetration / accumulation (HPAC spheroids [4]) | Spheroid penetration (HPAC spheroids [4]; 100 μM/24 h) | Cell permeation at 4 °C (A549 cells [5]; A549 cells, 4 °C, 30 μM/24 h) | Cellular uptake / membrane permeation (A549 cells [5]; 30 μM, dark, exc 490 nm, em 650-800 nm) | Cell permeation (CHO cells [6]; CHO cells, 30 μM/24 h) | Cellular uptake / membrane permeation (CHO cells [6]; 30 μM, dark) | Cell viability by DRAQ7 co-staining (A549 cells [7]; 30 μM, 24 h and 48 h) | Cytotoxicity by DRAQ7 co-staining (A549 cells [7]; 100 μM, 48 h) | Cell death by DRAQ7 co-staining (A549 cells [7]; 100 μM/24 h) | Cell membrane permeability (cell membrane) | Cellular uptake / membrane permeation (A549 cells [5]; 100 μM) | Cellular uptake / membrane permeation (CHO cells [6]; 100 μM)
N=C(N)NCCC[C@@H](NC(=O)[C@@H](CCCNC(=N)N)NC(=O)[C@@H](CCCNC(=N)N)NC(=O)[C@@H](CCCNC(=N)N)NC(=O)CCCCCNC(=O)c1ccc(-c2cc(-c3ccccn3)nc(-c3ccccn3)c2)cc1)C(N)=O [[Os-(R4)2]^10+] ({X1-Ahx}-[dR][dR][dR][dR]-NH2) | no evidence of toxicity | entry of DRAQ7 (blue) in several cell nuclei | non-photocytotoxic | not observed | spheroid penetration was evident | throughout cell layers and deep into the spheroid core | extensive probe penetration and distribution to the core of the spheroid | inhibited | rapidly and efficiently internalized | inhibited | rapidly and efficiently internalized | remained viable | modest cytotoxic effects | no cell death was induced | – | – | –
O=C(O)c1ccc(-c2cc(-c3ccccn3)nc(-c3ccccn3)c2)cc1.O=C(O)c1ccc(-c2cc(-c3ccccn3)nc(-c3ccccn3)c2)cc1.[Os+2] [[Os(tpybenzCOOH)2]^2+, Os(II) [bis-(4′-(4-carboxyphenyl)-2,2′:6′,2″-terpyridine)]] | – | – | – | – | – | no spheroid penetration or accumulation was observed | – | – | – | – | – | – | – | – | cell membrane impermeable | completely impermeable | completely impermeable
